According to patent US10919916B2, “Boron-containing small molecules” (Bill & Melinda Gates Foundation, priority 2016, dated 2021):
Converted amounts (≈) assume the structure as drawn. Like-named read-outs stand apart in the source and are kept apart here.

How the values were obtained:
Assay type in all cases: cell-based
[1] = system: Streptococcus pneumoniae (ATCC 49619); experiment: Antibacterial MIC assay (microbroth dilution, CLSI)
In short: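 CLSI broth microdilution: 2-fold compound dilutions in cation-adjusted Mueller-Hinton broth supplemented with 3% lysed horse blood for S. pneumoniae, inoculum 5×10^5 CFU/mL from a 0.5 McFarland direct colony suspension, with growth control.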

[2] = system: Staphylococcus aureus, MRSA (ATCC 33591); experiment: as above; conditions: read-out: MIC Staphylococcus aureus, MRSA (ATCC 33591)
In short: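 Microbroth dilution per CLSI M07-A10/M100-S25 in cation-adjusted Mueller-Hinton broth, with 3% lysed horse blood added for S. pneumoniae. Inoculum from a 0.5 McFarland direct colony suspension, diluted to 5×10^5 CFU/mL in the well. Compounds were 2-fold serially diluted; MIC read against a growth control.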

[3] = system: Wolbachia pipientis in C6/36 cell line; experiment: Anti-Wolbachia high-content assay; conditions: read-out: EC50 Wolbachia pipientis in C6/36 cell line
In short: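 Wolbachia-infected C6/36 cells stained 15 minutes, then medium replaced and five fields per well imaged confocally at 60× with fluorescein filters. Each intact cell scored on cytoplasmic texture complexity.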

[4] = ATCC49619, microbroth dilution, 3% lysed horse blood, 35° C. for 16-20 hours, read-out: MIC Streptococcus pneumoniae (ATCC 49619)
[5] = microbroth dilution, cation-adjusted Mueller-Hinton broth, 35° C. for 16-20 hours
[6] = C6/36 (wAlbB) cells, 7 days at 26° C., 50% reduction of Wolbachia

Compound | MIC [1, 4] | MIC [2, 5] | EC50 [3, 6] | MIC ([1]; ATCC49619, read-out: MIC Streptococcus pneumoniae (ATCC 49619)) | MIC [2] | EC50 ([3]; C6/36, […])
C=C[C@]1(C)C[C@@H](OC(=O)COc2ccc3c(c2F)B(O)N(S(C)(=O)=O)N=C3)[C@]2(C)[C@H](C)CC[C@]3(C[C@H](O)C(=O)[C@H]32)[C@@H](C)[C@@H]1O [Compound 77, (2S,3aR,4R,5R,7S,8S,9R,9aS,12R)-2,8-dihydroxy-4,7,9,12-tetramethyl-3-oxo-7-vinyldecahydro-4,9a-propanocyclopenta[8]annulen-5-yl 2-((8-fluoro-1-hydroxy-2-(methylsulfonyl)-1,2-dihydrobenzo[d][1,2,3]diazaborinin-7-yl)oxy)acetate] | 0.5 to 2 µg/mL (≈ 0.788 to 3.15 µM) | 4 to 32 µg/mL (≈ 6.3 to 50.4 µM) | > 1000 nM |  |  | 
C=C[C@]1(C)C[C@@H](OC(=O)COc2ccc3c(c2)B(O)N(S(C)(=O)=O)N=C3)[C@]2(C)[C@H](C)CC[C@]3(C[C@H](O)C(=O)[C@H]32)[C@@H](C)[C@@H]1O [Compound 78, (2S,3aR,4R,5R,7S,8S,9R,9aS,12R)-2,8-dihydroxy-4,7,9,12-tetramethyl-3-oxo-7-vinyldecahydro-4,9a-propanocyclopenta[8]annulen-5-yl 2-((1-hydroxy-2-(methylsulfonyl)-1,2-dihydrobenzo[d][1,2,3]diazaborinin-7-yl)oxy)acetate] | 0.5 to 2 µg/mL (≈ 0.811 to 3.24 µM) | 0.5 to 2 µg/mL (≈ 0.811 to 3.24 µM) | 13 nM |  |  | 
C=C[C@]1(C)C[C@@H](OC(=O)COc2ccc3c(c2)B(O)N(S(C)(=O)=O)N=C3)[C@]2(C)[C@H](C)CC[C@]3(C[C@H](F)C(=O)[C@H]32)[C@@H](C)[C@@H]1O [Compound 79, (2S,3aR,4R,5R,7S,8S,9R,9aS,12R)-2-fluoro-8-hydroxy-4,7,9,12-tetramethyl-3-oxo-7-vinyldecahydro-4,9a-propanocyclopenta[8]annulen-5-yl 2-((1-hydroxy-2-(methylsulfonyl)-1,2-dihydrobenzo[d][1,2,3]diazaborinin-7-yl)oxy)acetate] | 0.5 to 2 µg/mL (≈ 0.808 to 3.23 µM) | 0.5 to 2 µg/mL (≈ 0.808 to 3.23 µM) | 56 nM |  |  | 
C=C[C@]1(C)C[C@@H](OC(=O)COc2ccc3c(c2F)B(O)NN=C3)[C@]2(C)[C@H](C)CC[C@]3(CCC(=O)[C@H]32)[C@@H](C)[C@@H]1O [Compound 81, (3aR,4R,5R,7S,8S,9R,9aS,12R)-8-hydroxy-4,7,9,12-tetramethyl-3-oxo-7-vinyldecahydro-4,9a-propanocyclopenta[8]annulen-5-yl 2-((8-fluoro-1-hydroxy-1,2-dihydrobenzo[d][1,2,3]diazaborinin-7-yl)oxy)acetate] |  |  |  | < 0.25 µg/mL | < 0.25 µg/mL | 34 nM

Second part, led by results:

MIC [1, 4] | MIC [2, 5] | EC50 [3, 6] | Compound | MIC ([1]; ATCC49619, read-out: MIC Streptococcus pneumoniae (ATCC 49619)) | MIC [2] | EC50 ([3]; C6/36, […])
< 0.25 µg/mL | 0.5 to 2 µg/mL (≈ 0.905 to 3.62 µM) | 36 nM | C=C[C@]1(C)C[C@@H](OC(=O)COc2ccc3c(c2)B(O)N(C)N=C3)[C@]2(C)[C@H](C)CC[C@]3(C[C@H](O)C(=O)[C@H]32)[C@@H](C)[C@@H]1O [Compound 82, (2S,3aR,4R,5R,7S,8S,9R,9aS,12R)-2,8-dihydroxy-4,7,9,12-tetramethyl-3-oxo-7-vinyldecahydro-4,9a-propanocyclopenta[8]annulen-5-yl 2-((1-hydroxy-2-methyl-1,2-dihydrobenzo[d][1,2,3]diazaborinin-7-yl)oxy)acetate] |  |  | 
0.5 to 2 µg/mL (≈ 0.902 to 3.61 µM) | 0.5 to 2 µg/mL (≈ 0.902 to 3.61 µM) | 78 nM | C=C[C@]1(C)C[C@@H](OC(=O)COc2ccc3c(c2)B(O)N(C)N=C3)[C@]2(C)[C@H](C)CC[C@]3(C[C@H](F)C(=O)[C@H]32)[C@@H](C)[C@@H]1O [Compound 84, (2S,3aR,4R,5R,7S,8S,9R,9aS,12R)-2-fluoro-8-hydroxy-4,7,9,12-tetramethyl-3-oxo-7-vinyldecahydro-4,9a-propanocyclopenta[8]annulen-5-yl 2-((1-hydroxy-2-methyl-1,2-dihydrobenzo[d][1,2,3]diazaborinin-7-yl)oxy)acetate] |  |  | 
